Laboratory results from patent US8637670B2, “Imidazo [4,5-C]quinoline derivatives and their use in the treatment of tumors and/or inflammation” (Piramal Enterprises Limited, priority 2009, dated 2014).
pIC50: −log10 of the molar value.

Legend:
PC3 = assay: Cytotoxicity, propidium iodide assay, PC3; type: cell-based; settings: Homo sapiens, PC-3; Prostate, PC3, 48 hours treatment; read-out: IC50, C2a (PC3)
Outline: (§1)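 3000 cells/well; 18-24 h attachment at 37° C./5% CO2; compound 48 h; PBS wash; 7 μg/ml PI; freeze −70° C. ≥24 h; thaw to RT, fluorescence read; IC50 from % viability vs untreated.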

A2780 = assay: Cytotoxicity, propidium iodide assay, A2780; type: cell-based; settings: Homo sapiens; Ovarian, A2780, 48 hours treatment; read-out: IC50, C3a (A2780)
Outline: as §1

PANC 1 = assay: Cytotoxicity, propidium iodide assay, PANC 1; type: cell-based; settings: Homo sapiens; Pancreatic, PANC 1, 48 hours treatment; read-out: IC50, C5a (PANC 1)
Experimental: The assay was designed as in the reference, Anticancer Drugs, 2002, 13, 1-8, the disclosure of which is incorporated by reference for the teaching of the assay.
Cells from cell lines as mentioned in the table given below were seeded at a density of 3000 cells/well in a white opaque 96-well plate. Following incubation at 37° C./5% CO2 for a period of 18-24 hours, the cells were treated with various concentrations (stock solution was prepared in DMSO and subsequent dilutions were made in media as per ATCC guidelines) of the compounds of Example 1-40 was for a period of 48 hours. At the end of treatment, the spent culture medium was discarded, the cells were washed with 1×PBS and 200 μl of 7 μg/ml propidium iodide was added to each well. The plates were frozen at −70° C. for at least 24 hours. For analysis, the plates were brought to RT, allowed to thaw and were read in PoleStar fluorimeter with the fluorescence setting. The percentage of viable cells in the non-treated set of wells was considered to be 100 and the percentage viability following treatment was calculated accordingly. IC50 values were calculated from graphs plotted using these percentages. Table 4 depicts the IC50 values of compounds of Example 1-40 in individual cell lines.
The abbreviations for the Cell Lines as used in Table 4 are: […]

IL-6 = assay: Human monocyte assay, LPS-stimulated IL-6 (ELISA); type: cell-based; settings: human monocytes, 1 μg/ml LPS, 5 hours
Outline: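 Adherent human PBMC-derived monocytes (2×10^4/well, cultured 48 h) were pretreated with compound or 0.5% DMSO vehicle for 30 min, then stimulated with 1 μg/ml E. coli 0111:B4 LPS for 5 h at 37 °C. Supernatant IL-6 and TNF-α were measured by ELISA; IC50 by nonlinear regression, with MTS toxicity on a parallel plate.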

mTOR = mTOR activity assay (cell-based); settings: Homo sapiens, Ovarian cell line A2780
Experimental: The assay was designed as in the reference, Biochemical Journal, 2000, 350, 717-722, the disclosure of which is incorporated by reference for the teaching of the assay.
Seed cells (Ovarian cell line A2780, ATCC) were plated in a 96 well microtitre plate at a density of 50,000 cells/cm^2 in appropriate complete cell culture medium. The cells were allowed to adhere for 18-24 hours. The cells were allowed to starve for 24 hours. The cells were pretreated (in triplicates) with the compounds of Example 1-40 (stock solution was prepared in DMSO and subsequent dilutions were made in kinase buffer) at a concentration of 10 μM for one hour. Then the cells were stimulated with 20% FCS for 30 minutes. A typical assay would consist of a set of unstimulated cells, a set of stimulated cells and a set of cells treated with compounds of Example 1-40 and a set of cells treated with the stimulator. The medium was discarded. The cells were fixed with 100 μL of 3.7% formaldehyde for 15 minutes. The formaldehyde was discarded by inverting the plate and tapping it on a thick tissue paper layer to remove traces. The cells were washed and permeabilized with 200 μL PBS+Triton-X 100 solution (hereafter referred to as PBS-Triton, containing 0.1% triton-X 100 in 1×PBS) three times, incubating the cells each time for 5 minutes. 100 μL blocking solution (10% FCS in PBS-Triton) was added and incubated for 1 hour at 25° C. The blocking solution was discarded and cells were incubated with the primary antibody in PBS-Triton at a dilution of 1:500 for 1 hour at RT (25° C.). [The primary antibody is Phospho-AKT (Ser 473); Cell Signaling; USA, Cat. No. 9271]. The primary antibody solution was discarded and the cells were washed 3 times with PBS-Triton solution and incubated with the HRP-conjugated secondary antibody in PBS-Triton at a dilution of 1:500 for 1 hour at RT (25° C.). The cells were washed 3 times with PBS-Triton followed by two washes with PBS (to remove traces of triton-X 100). The OPD (o-phenylene diamine dihydrochloride) substrate was prepared for detection of the signal by dissolving one tablet set (two tablets) of SigmaFast OPD (Sigma, USA, Cat No. P9187) in 20 mL distilled water. It should be kept protected from light. 100 μL OPD solutions was added to the wells and the plate was incubated in the dark for 3-5 minutes (depending upon the development of the color). The reaction was stopped by adding 50 μL 2 NH2SO4. The absorbance was measured at 490 nm. The values were expressed in the treated samples, in terms of percentage or fold decrease in AKT phosphorylation with respect to the induced sample. PI-103 (Calbiochem, USA) was used as a standard.

In the case of `C/C=C/C(=O)n1c(=O)n(-c2ccc(C(C)(C)C#N)cc2)c2c3cc(Br)ccc3ncc21` [Example 27, (E)-2-(4-(8-Bromo-3-but-2-enoyl-2-oxo-2,3-dihydro-1H-imidazo[4,5-c]quinolin-1-yl)phenyl)-2-methylpropanenitrile], the pIC50 (PC3) was at least 6.00, the pIC50 (A2780) was under 5.52 and the pIC50 (PANC 1) was at least 6.00. The pIC50 (IL-6) was at least 6.00 and the inhibition at 10 µM (mTOR) was over 50%.

For `C/C=C/C(=O)n1c(=O)n(-c2ccc(C(C)(C)C#N)cc2)c2c3cc(Cl)ccc3ncc21` [Example 38, (E)-2-(4-(3-But-2-enoyl-8-chloro-2-oxo-2,3-dihydro-1H-imidazo[4,5-c]quinolin-1-yl)phenyl)-2-methylpropanenitrile], the pIC50 (PC3) was at least 6.00, the pIC50 (A2780) was under 5.52 and the pIC50 (PANC 1) was at least 6.00. It also gave a pIC50 (IL-6) of at least 6.00 and an inhibition at 10 µM (mTOR) of over 50%.

`CC(C)(C#N)c1ccc(-n2c(=O)n(C(=O)c3ccccc3)c3cnc4ccc(Cl)cc4c32)cc1` [Example 37, 2-(4-(3-Benzoyl-8-chloro-2-oxo-2,3-dihydro-1H-imidazo[4,5-c]quinolin-1-yl)phenyl)-2-methylpropanenitrile] gave a pIC50 (PC3) of 5.52 to 6.00, a pIC50 (IL-6) of at least 6.00 and an inhibition at 10 µM (mTOR) of 10 to 50%.

Compound `Cc1cccc(S(=O)(=O)n2c(=O)n(-c3ccc(C(C)(C)C#N)cc3)c3c4cc(Br)ccc4ncc32)c1` [Example 3, 2-(4-(8-Bromo-2-oxo-3-(m-tolylsulfonyl)-2,3-dihydro-1H-imidazo[4,5-c]quinolin-1-yl)phenyl)-2-methylpropanenitrile] has a pIC50 (PC3) of at least 6.00, a pIC50 (A2780) of at least 6.00 and a pIC50 (PANC 1) of 5.52 to 6.00. For the same compound, the pIC50 (IL-6) was 5.00 to 6.00.

`CC(C)(C#N)c1ccc(-n2c(=O)n(C(=O)c3ccccc3)c3cnc4ccc(Br)cc4c32)cc1` [Example 30, 2-(4-(3-Benzoyl-8-bromo-2-oxo-2,3-dihydro-1H-imidazo[4,5-c]quinolin-1-yl)phenyl)-2-methylpropanenitrile] showed a pIC50 (PC3) of 5.52 to 6.00, a pIC50 (A2780) of at least 6.00 and a pIC50 (PANC 1) of 5.52 to 6.00. The pIC50 (IL-6) was at least 6.00 and the inhibition at 10 µM (mTOR) was 10 to 50%.
